Where “and” joins values, the source holds several entries; their conditions need not be identical. Equal values may be shown once. Read-outs that look alike come from different tables or passages of the source.
Experiments:
[1] = system: skin and soft tissue infections (SSTI); assay: Phase II trial in deep skin and soft tissue infections: clinical response; type: in vivo, human
Description: (§1) This randomized, controlled study evaluated the safety and efficacy of two dose regimens of dalbavancin.
(§2) There were 62 patients randomized into the study; all received at least one dose of study medication. Four study populations were evaluated for safety and efficacy and were defined as follows: The intent-to-treat (ITT) population included all patients who received at least one dose of study drug (all randomized study subjects).
The effectiveness of the three treatment regimens was determined by assessing the patients' clinical response and the documented or presumed microbiological responses. The primary efficacy endpoint was clinical response at the follow-up visit for the clinically evaluable population. Clinical response, for both EOT and FU visits, was categorized as success (cure or improvement) or failure (including indeterminate results). Patients classified as successes must not have received additional systemic antibacterial treatment for their infection. Failure was defined as persistence of one or more local or systemic signs and symptoms of SSTI such that treatment with new or additional systemic antibacterial agents was required for the SSTI.

[2] = system: Gram-positive pathogen identified at baseline; assay: Phase II SSTI trial: microbiological response; type: in vivo, human; settings: for Success rate by pathogen: MITT at FU; for Microbiologic success rate: MITT population; for Eradication/presumed eradication rate, all organisms / S. aureus eradication rate: microbiologically-evaluable population at FU
Description: as §1, §2
Microbiological outcome, a secondary efficacy variable, was assessed in the subpopulation of patients who had microbiologically documented SSTI (i.e., at least one identified baseline pathogen). A microbiologic response was assessed for each Gram-positive pathogen identified at baseline (i.e., eradication, presumed eradication, persistence, presumed persistence). For patients for whom follow-up cultures were not performed, the microbiologic responses for baseline pathogens were presumed on the basis of the clinical response. Microbiologic response by patient at the EOT and FU visits was graded as success (i.e., all Gram-positive organisms eradicated or presumed eradicated) or failure (i.e., at least one Gram-positive organism persisted or presumed to have persisted, multiple pathogens with partial eradication). At both the EOT and FU visits, colonization and superinfection were assessed. At the FU visit, a patient's bacteriological response could also include recurrence.

[3] = Phase II SSTI trial: adverse events; type: in vivo, human
Description: Each patient who received at least one dose of study drug (ITT population) was evaluated for drug safety through monitoring of adverse events (AE), including abnormal clinical laboratory test results and vital signs. AE were rated by the investigator as to their severity (mild, moderate, severe, life-threatening), and by the relationship to the study drug (not related, unlikely related, possibly related, or probably related).

[4] = Phase II SSTI trial: dalbavancin plasma concentrations; type: in vivo, human; settings: for Mean dalbavancin plasma concentration: two-dose regimen
S. aureus = assay: Dalbavancin MIC of baseline isolates; type: cell-based; settings: All S. aureus
Group B streptococcus = assay: Dalbavancin MIC of baseline isolates; type: cell-based
[5] = system: Miscellaneous Streptococcus and nontypeable strains; assay: Dalbavancin MIC of baseline isolates; type: cell-based
[6] = Pharmacokinetics and renal excretion in healthy subjects; type: in vivo, human
Description: Blood samples were drawn into heparinized tubes and centrifuged. Plasma was separated and stored frozen at −20° C. until time of assay. Plasma and urine samples were assayed for dalbavancin using validated LC/MS/MS methods. […] The peak concentration (Cmax) values were obtained directly from the observed data. The area under the plasma concentration-time curve (AUC) was calculated using the linear trapezoidal rule. Clearance (CL) was computed as dose/AUC. The elimination half life (t1/2) was estimated by linear regression of the log-linear portion of the log concentration versus time curve. Estimates of the volume of distribution (Vz) was calculated using the regression parameters, while the volume of distribution at steady state (Vss) was calculated from the area under the first moment curve (AUMC) multiplied by the dose and divided by AUC. The cumulative amount of dalbavancin excreted in urine was determined as the integrand of the urine excretion rate (AURC). CLR, or renal clearance, was calculated as the ratio: CLR=AURC/AUC.

[7] = Safety assessments in healthy subjects; type: in vivo, human; settings: single 1000 mg IV
Description: Adverse events were recorded and assessed for severity and relationship to study drug. Laboratory data (chemistry panel, CBC with differential, urinalysis) were collected and assessed for changes from baseline and out-of-range values. ECG, physical examination, and vital signs were obtained, and changes from baseline were assessed.

human α-glycoprotein = assay: Protein binding by isothermal titration microcalorimetry; settings: for apparent binding affinity Ka: pH 7.4; for Calculated percent binding: α-glycoprotein […]10^−5M
Description: (§3) Integrated heat effects, after correction for heats of dilution, were analyzed by non-linear regression using a simple single-site binding model with the standard Microcal ORIGIN software package. Raw data (μcal/sec) for each injection were integrated to give the total heat effect per addition, then divided by amount of injectant to give kcal/mole of injectant. The same integration was applied for control dilution effects, and this was subtracted from the actual titration data. This provided a differential of the binding curve in which the extent of binding is proportional to the total heat liberated (or absorbed). This was then analyzed by non-linear regression methods in terms of various standard binding models.

[8] = Stability of dalbavancin in plasma; type: in vitro ADME, human
Description: A quality control standard of 1.5 μg/ml was prepared by spiking human plasma with an appropriate volume of a 50 μg/ml solution.

[9] = ESI-MS of multimers in solution
Description: Experiments were performed using an Applied Biosystem API III+mass spectrometer equipped with a TurboIonSpray source, a Triple Quadrupole analyzer, operating in positive ion mode.
The mass spectra were obtained in electrospray positive mode on a Finnigan LCQDeca ion trap instrument previously tuned and calibrated in electrospray mode using Ultramark 1621, caffeine and MRFA (L-metionyl-arginyl-phenilalanyl-arginine).
The mass spectra were obtained in electrospray positive mode on a Finnigan LCQ^Deca ion trap instrument previous tuned and calibrated in electrospray mode using Ultramark 1621, caffeine and MRFA (L-metionyl-arginyl-phenilalanyl-arginine).

[10] = system: N,N′-diacetyl-Lys-D-Ala-D-Ala; assay: ITC of binding to tri-peptide, with and without HSA
human albumin = human albumin (Homo sapiens, UniProt P02768); assay: Protein binding by isothermal titration microcalorimetry
Sequence of human albumin (P02768 25-609): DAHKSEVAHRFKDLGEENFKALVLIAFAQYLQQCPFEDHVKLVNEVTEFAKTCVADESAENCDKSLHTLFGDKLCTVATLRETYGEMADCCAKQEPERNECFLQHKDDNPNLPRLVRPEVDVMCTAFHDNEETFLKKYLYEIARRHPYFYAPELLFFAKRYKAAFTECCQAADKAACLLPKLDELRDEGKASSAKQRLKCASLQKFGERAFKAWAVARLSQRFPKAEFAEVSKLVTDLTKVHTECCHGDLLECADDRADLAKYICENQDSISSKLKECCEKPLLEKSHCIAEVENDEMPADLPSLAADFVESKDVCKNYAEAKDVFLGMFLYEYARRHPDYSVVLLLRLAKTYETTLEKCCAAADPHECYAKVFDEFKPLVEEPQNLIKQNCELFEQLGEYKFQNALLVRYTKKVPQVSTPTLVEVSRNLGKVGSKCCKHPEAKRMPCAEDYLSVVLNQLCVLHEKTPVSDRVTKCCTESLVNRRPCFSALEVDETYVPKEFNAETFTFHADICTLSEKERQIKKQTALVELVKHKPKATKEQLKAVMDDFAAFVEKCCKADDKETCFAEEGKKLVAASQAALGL
Description: as §3

[11] = MITT isolates of single-dose group
[12] = MITT isolates of standard of care group
[13] = MITT isolates of two-dose group

CN[C@H]1C(=O)N[C@@H]2Cc3ccc(cc3)Oc3cc4cc(c3O[C@@H]3O[C@H](C(=O)O)[C@@H](O)[C@H](O)[C@H]3NC(=O)CCCCCCCCC(C)C)Oc3ccc(cc3Cl)[C@@H](O)[C@@H]3NC(=O)[C@H](NC(=O)[C@@H]4NC(=O)[C@@H](NC2=O)c2cc(cc(O)c2Cl)Oc2cc1ccc2O)c1ccc(O)c(c1)-c1c(O[C@H]2O[C@H](CO)[C@@H](O)[C@H](O)[C@@H]2O)cc(O)cc1[C@@H](C(=O)NCCCN(C)C)NC3=O [Dalbavancin]
Clinical success rate ([1]; MITT at FU, patients with MRSA, single-dose): 50%
Clinical success rate ([1]; MITT at FU, patients with MRSA, two-dose): 80%
Clinical success rate ([1]; subanalysis: deep or complicated SSTI at baseline, single-dose): 58.3%
Clinical success rate ([1]; subanalysis: deep or complicated SSTI at baseline, two-dose): 93.8%
Success rate by pathogen ([2]; All S. aureus, single-dose (1100 mg)): 5/13 (38%)
Success rate by pathogen ([2]; All S. aureus, two-dose (1000/500 mg)): 9/11 (82%)
Microbiologic success rate ([2]; EOT, single-dose (1100 mg)): 5/14 (35.7) %
Microbiologic success rate ([2]; EOT, two-dose (1000/500 mg)): 10/13 (76.9) %
Microbiologic success rate ([2]; FU, single-dose (1100 mg)): 3/14 (21.4) %
Microbiologic success rate ([2]; FU, two-dose (1000/500 mg)): 9/13 (69.2) %
Success rate by pathogen ([2]; Methicillin-sensitive S. aureus, single-dose (1100 mg)): 2/7 (29%)
Success rate by pathogen ([2]; Methicillin-sensitive S. aureus, two-dose (1000/500 mg)): 5/6 (83%)
Success rate by pathogen ([2]; Miscellaneous streptococcus species, single-dose (1100 mg)): 2/3 (67%)
Success rate by pathogen ([2]; Miscellaneous streptococcus species, two-dose (1000/500 mg)): 4/4 (100%)
Success rate by pathogen ([2]; Total organisms, single-dose (1100 mg)): 7/16 (43.8%)
Success rate by pathogen ([2]; Total organisms, two-dose (1000/500 mg)): 14/16 (87.5%)
Eradication/presumed eradication rate, all organisms ([2]; single-dose): 58%
S. aureus eradication rate ([2]; single-dose): 50%
Eradication/presumed eradication rate, all organisms ([2]; two-dose): 92%
S. aureus eradication rate ([2]; two-dose): 90%
Clinically significant hepatotoxicity or nephrotoxicity ([3]; both dalbavancin regimens): no evidence
Tolerability ([3]; both doses): well tolerated
Mean dalbavancin plasma concentration (mean±SD) ([4]; single-dose regimen, Study day 10): 25.2 ± 4.8 mg/L
Mean dalbavancin plasma concentration ([4]; Study day 8 (prior to the second dose)): 30.4 ± 8.2 mg/L
Mean dalbavancin plasma concentration ([4]; Study day 20): 21.2 ± 10.0 mg/L
Mean dalbavancin plasma concentration ([4]; Study day 34): 9.0 ± 4.4 mg/L
Dalbavancin MIC (S. aureus; [11]): (0.12) mg/L
Dalbavancin MIC range (S. aureus; [12]): (0.016-0.25) mg/L
Dalbavancin MIC (S. aureus; [13]): (0.12) mg/L
Dalbavancin MIC (Group B streptococcus; [12]): (0.016) mg/L
Dalbavancin MIC (Group B streptococcus; [13]): (0.016) mg/L
Dalbavancin MIC [5, 11]: (0.016) mg/L
Dalbavancin MIC [5, 12]: (0.016) mg/L
Dalbavancin MIC [5, 13]: (0.016) mg/L
peak concentration in man ([6]; human, in vivo): ~165 µM
CLR ([6]; single 1000 mg IV, mean): 0.018 L/h
VZ ([6]; single 1000 mg IV, mean): 16.0 L
plasma concentration maintained for at least seven days ([6]; single intravenous infusion of 1000 mg): above 45 mg/l
Subject deaths or serious adverse events [7]: No subject deaths or serious adverse events
Tolerability [7]: well-tolerated
Volunteers reporting AEs possibly related to study medication ([7]; six subjects): Three
apparent binding affinity Ka (human α-glycoprotein; 25° C.): 1.84 (±0.36) ×10^5 M^−1
apparent binding affinity Ka (human α-glycoprotein; 37° C.): 4.8 (±2.3) ×10^5 M^−1
Calculated percent binding (human α-glycoprotein; antibiotic 1 μM): 73.0%
Calculated percent binding (human α-glycoprotein; antibiotic 500 μM): 5.9%
Stability in processed plasma samples ([8]; 24 hours at room temperature): stable
Stability in human plasma, detectable concentration ([8]; three cycles of freeze-thaw, 1.5 and 90 μg/ml): stable
Multimers in solution (ESI-MS) [9]: presence of dalbavancin multimers
population ratio of multimer to monomer vs concentration ([9]; 20, 40, 60, and 80 μg/mL): increases with increasing concentration
population ratio of multimer to monomer vs ionic strength ([9]; ammonium formate 5, 50, 100 mM, pH 5, increase in buffer concentration): decrease
population ratio of multimer to monomer vs pH ([9]; pH 2.5 to 5.5): increases with increasing pH
weaker binding affinity than in the absence of HSA ([10]; 25° C., plateau at high HSA): 10-12 ×
Kass ([10]; T 25 ° C., [HSA] 104 μM): 34900 M⁻¹
Kass ([10]; T 25 ° C., [HSA] 288 μM): 31000 M⁻¹
Kass ([10]; T 25 ° C., [HSA] 430 μM): 28400 M⁻¹
Kass ([10]; T 37 ° C., [HSA] 0 μM): 130000 M⁻¹ and 110000 M⁻¹
Kass ([10]; T 37 ° C., [HSA] 516 μM): 9568 M⁻¹
Kd ([10]; read-out: Kdiss (preliminary experiments), absence of serum proteins, depending on temperature): 1 to 10 µM
Kd ([10]; read-out: Kdiss, T 25 ° C., [HSA] 288 μM): 32.3 µM
Kd ([10]; read-out: Kdiss, T 37 ° C., [HSA] 0 μM): 7.69 µM and 9.09 µM
Kd ([10]; read-out: Kdiss, T 37 ° C., [HSA] 516 μM): 105 µM
binding stoichiometry modeling (drug:protein) (human albumin): two dalbavancin molecules are bound to one molecule of protein
Calculated percent binding (human albumin; antibiotic 500 μM, human serum albumin 6×10^−4 M): 98.0%
N (binding stoichiometry, protein to dalbavancin) (human albumin; in all cases (all proteins)): < 1

— US20050004011A1, “Compositions and methods for treating bacterial infections with protein-dalbavancin complexes” (priority 2002, published 2005)
